Measured values: patent US11622965B2, “Methods for treating lymphoid malignancies” (ZHEJIANG DTRM BIOPHARMA CO. LTD., priority 2017, dated 2023)

What was measured:
[1] = toxicokinetics in rats; type: in vivo
From the text: (§1) Both patents are incorporated by reference herein in their entirety.

[2] = system: relapsed/refractory CLL, Hodgkin lymphoma and B-cell NHL including DLBCL; assay: U.S. Phase Ia trial of Compound A monotherapy: efficacy; type: in vivo, human; design: key to response: PD: disease progression; settings: for time on continued monotherapy treatment: treatment continuing
Method: Eligibility criteria for the U.S. study were similar to the China study, but histological subtypes included patients with relapsed/refractory CLL, Hodgkin lymphoma and B-cell NHL including DLBCL. Patients who had prior exposure to BTK inhibiting agents were permitted in the trial.
(§2) Studies on the 200 mg and 300 mg cohorts were conducted in a standard 3+3 design.
The response rate, including the partial response and complete response rate, was defined according to the Revised International Working Group Criteria for non-Hodgkin's lymphoma (Cheson et al., J Clin Oncol 25:579-86 (2007)). Drug-related adverse events (AEs), including DLT, non-hematologic AEs and hematologic AEs were recorded. […] The PK indexes of single dose administration included AUClast, AUCO-∞, Cmax, tmax, t1/2, CL/F and Vd/F. The PK indexes of steady state under continuous administration included AUCss, Cmax,ss and tmax,ss.

[3] = U.S. Phase Ia trial of Compound A monotherapy: safety
Method: as §2
Drug-related adverse events (AEs), including DLT, non-hematologic AEs and hematologic AEs were recorded. […] The PK indexes of single dose administration included AUClast, AUCO-∞, Cmax, tmax, t1/2, CL/F and Vd/F. The PK indexes of steady state under continuous administration included AUCss, Cmax,ss and tmax,ss.

[4] = system: relapsed/refractory B-cell lymphomas; assay: China Phase I trial of Compound A monotherapy: efficacy; type: in vivo, human
Method: The pharmacokinetics of Compound A was also evaluated.
Patients who met the following inclusion criteria were enrolled in the trials in China: i) age≥18 years, no gender limits, and provide the informed consent form; ii) B-cell lymphoma classification is based on WHO classified definition, including CLL, small lymphocytic lymphoma (SLL); CLL with 17p-; MCL; WM; DLBCL, etc.; iii) measurable lesion: NHL requires at least one≥2 cm two-dimensional lesion diameter, CLL≥5000 leukemia cells/mm^3, WM IgM≥1000 mg/dL, bone marrow lymph plasma-like cells infiltration, histopathologically diagnosed as DLBCL; iv) patients failed in lymphoma treatment at least once and have no standard therapeutic options; DLBCL patients who are not suitable for or reject autologous stem cell transplantation; and v) ECOG (Eastern Cooperative Oncology Group) performance status 0˜1. Meanwhile, patients who met any one of the following criteria were excluded: i) disease with changes of pathological tissue types (including large cell transformation); ii) patients received other BTK inhibitor therapy (China only); and iii) patients with HIV infection, or HBs-Ag or HBc-Ab positive.
No intrapatient dose escalation of Compound A was permitted.

[5] = toxicokinetics in beagle dogs; type: in vivo
From the text: as §1

[6] = five patients, 21 day dosing schedule

With C=CC(=O)N1CC[C@@H](n2nc(-c3ccc(Oc4c(F)c(F)cc(F)c4F)cc3F)c3c(N)ncnc32)C1 [Compound A, 1-((R)-3-(4-amino-3-(2-fluoro-4-(2,3,5,6-tetrafluorophenoxy)phenyl)-1H-pyrazolo[3,4-d]pyrimidin-1-yl)pyrrolidin-1-yl)prop-2-en-1-one] the toxicokinetics properties [1] was “Improved toxicokinetics properties”, the response ([2]; B-cell lymphoma patient) was 1SD and the “time on monotherapy until off study for disease progression” value (“time on monotherapy until off study” below) ([2]; B-cell lymphoma, 50 mg) was “five months”. For the same compound, the response ([2]; CLL patients (N=2)) was 1PR, 1SD, the “time on continued monotherapy treatment” value ([2]; CLL, 100 mg) was 13 months and the “time on monotherapy until off study” value ([2]; CLL, 200 mg) was 8 months. For the same compound, the response ([2]; DLBCL patient) was “PD”, the “time on monotherapy until off study” value ([2]; DLBCL, 200 mg) was 2 months and the response ([2]; MZL patient) was 1PR. For the same compound, the “time on continued monotherapy treatment” value ([2]; MZL) was 11 months, the “discontinuation due to AEs and deaths” value ([3]; five patients) was “No patient discontinued study treatment due to AEs and no patient died on-study or within the 30-day follow-up period” and the “hematologic single patient events” value ([3]; five patients) was “Grade 3 thrombocytopenia and Grade 3 neutropenia”. For the same compound, the “non-hematologic single patient events” value ([3]; five patients) was “Grade 3 lung infection, bronchitis, myalgia, nausea, fatigue and purpura (all Grade 1)”, the “anemia, patients” value ([3]; five patients, 50-200 mg daily, 21 day dosing schedule) was 60% and the “arthralgia, patients” value [3, 6] was 40%. For the same compound, the “contusion, patients” value [3, 6] was 40%, the “grade of adverse events” value [3, 6] was “mostly Grade 1 and 2” and the “upper respiratory infection, patients” value [3, 6] was 40%. The tolerability ([3]; three additional patients, 300 mg) was “well tolerated”, the response ([4]; FL patients (N=2)) was 1PR, 1SD and the “progressive disease after treatment” value ([4]; FL patients, first cycle) was “three FL patients experienced progressive disease”. For the same compound, the response ([4]; MZL patients (N=2)) was 1CR, 1SD, the response ([4]; WM patients (N=2)) was 2PR and the toxicokinetics properties [5] was “Improved toxicokinetics properties”.
